Test results from ChEMBL document CHEMBL2016499, “Monoenomycin: A Simplified Trienomycin A Analogue that Manifests Anticancer Activity” (ACS Med Chem Lett, 2011).

Tests used:
[1] = test system: MCF7; experiment: Cytotoxicity against human MCF7 cells at 72 hrs by MTS assay; format: functional, cell-based; conditions: MCF7, 72 h
[2] = test system: HeLa; experiment: Cytotoxicity against human HeLa cells at 72 hrs by MTS assay; format: functional, cell-based

SMILES: COc1cc2cc(c1)NC(=O)CCCCCCC=CC[C@H](OC(=O)[C@@H](C)NC(=O)C1CCCCC1)CC/C(C)=C/CC2 (mixture of isomers)
- IC50 [1]: 530 nM
- IC50 [2]: 470 nM

SMILES: COc1cc2cc(c1)NC(=O)CCCCCCC=CC[C@H](OC(=O)[C@@H](C)NC(=O)C1CCCCC1)CC/C(C)=C\CC2 (mixture of isomers)
- IC50 [1]: > 100000 nM
- IC50 [2]: > 100000 nM

SMILES: COc1cc2cc(c1)NC(=O)CCCCCCC=CC[C@H](OC(=O)CNC(=O)C1CCCCC1)CC/C(C)=C/CC2 (mixture of isomers)
- IC50 [1]: 12000 nM
- IC50 [2]: 13000 nM

SMILES: COc1cc2cc(c1)NC(=O)CCCCCCC=CC[C@H](OC(=O)[C@H](C)NC(=O)C1CCCCC1)CC/C(C)=C/CC2 (mixture of isomers)
- IC50 [1]: 1900 nM
- IC50 [2]: 1700 nM

SMILES: COc1cc2cc(c1)NC(=O)CCCCCCC=CC[C@H](OC(=O)[C@H](NC(=O)C1CCCCC1)C(C)C)CC/C(C)=C/CC2 (mixture of isomers)
- IC50 [1]: 1000 nM
- IC50 [2]: 9100 nM

SMILES: COc1cc2cc(c1)NC(=O)CCCCCCC=CC[C@H](OC(=O)[C@@H](Cc1ccccc1)NC(=O)C1CCCCC1)CC/C(C)=C/CC2 (mixture of isomers)
- IC50 [1]: 5100 nM
- IC50 [2]: 4600 nM

SMILES: COc1cc2cc(c1)NC(=O)CCCCCCC=CC[C@H](OC(=O)[C@@H](CC(C)C)NC(=O)C1CCCCC1)CC/C(C)=C/CC2 (mixture of isomers)
- IC50 [1]: > 100000 nM
- IC50 [2]: > 100000 nM

SMILES: COc1cc2cc(c1)NC(=O)CCCCCCC=CC[C@H](OC(=O)[C@@H](C)NC(=O)C1CCCC1)CC/C(C)=C/CC2 (mixture of isomers)
- IC50 [1]: 720 nM
- IC50 [2]: 1600 nM

SMILES: COc1cc2cc(c1)NC(=O)CCCCCCC=CC[C@H](OC(=O)[C@@H](C)NC(C)=O)CC/C(C)=C/CC2 (mixture of isomers)
- IC50 [1]: 1700 nM
- IC50 [2]: 2500 nM

SMILES: COC1=C2C[C@@H](C)C[C@H](OC)[C@H](O)[C@@H](C)/C=C(\C)[C@H](OC(N)=O)[C@@H](OC)/C=C\C=C(/C)C(=O)NC(=CC1=O)C2=O [GELDANAMYCIN]
- IC50 [1]: 53 nM
- IC50 [2]: > 5000 nM

SMILES: CO[C@H]1/C=C/C=C/C=C/C[C@H](OC(=O)[C@@H](C)NC(=O)C2CCCCC2)[C@H](C)[C@@H](O)/C(C)=C\CCc2cc(O)cc(c2)NC(=O)C1 [TRIENOMYCIN A]
- IC50 [2]: 128 nM
